Patent US20050238580A1 (priority 2002, published 2005)

Assays:
[1] = target: T1, intestinal lactase (Rattus norvegicus, UniProt Q02401); test: Xylose in blood plasma after oral 4-galactosyl-xylose versus intestinal lactase activity in unweaned rats; assay type: in vivo
T1 construct: hydrolysis of the 4-galactosyl-xylose administered is detected by the action of intestinal lactase; from tissue; host or cells: small-intestinal mucous membrane of living unweaned rats (in vivo); activity also measured post mortem in mucosa homogenate
T1 sequence (Q02401 868-1928): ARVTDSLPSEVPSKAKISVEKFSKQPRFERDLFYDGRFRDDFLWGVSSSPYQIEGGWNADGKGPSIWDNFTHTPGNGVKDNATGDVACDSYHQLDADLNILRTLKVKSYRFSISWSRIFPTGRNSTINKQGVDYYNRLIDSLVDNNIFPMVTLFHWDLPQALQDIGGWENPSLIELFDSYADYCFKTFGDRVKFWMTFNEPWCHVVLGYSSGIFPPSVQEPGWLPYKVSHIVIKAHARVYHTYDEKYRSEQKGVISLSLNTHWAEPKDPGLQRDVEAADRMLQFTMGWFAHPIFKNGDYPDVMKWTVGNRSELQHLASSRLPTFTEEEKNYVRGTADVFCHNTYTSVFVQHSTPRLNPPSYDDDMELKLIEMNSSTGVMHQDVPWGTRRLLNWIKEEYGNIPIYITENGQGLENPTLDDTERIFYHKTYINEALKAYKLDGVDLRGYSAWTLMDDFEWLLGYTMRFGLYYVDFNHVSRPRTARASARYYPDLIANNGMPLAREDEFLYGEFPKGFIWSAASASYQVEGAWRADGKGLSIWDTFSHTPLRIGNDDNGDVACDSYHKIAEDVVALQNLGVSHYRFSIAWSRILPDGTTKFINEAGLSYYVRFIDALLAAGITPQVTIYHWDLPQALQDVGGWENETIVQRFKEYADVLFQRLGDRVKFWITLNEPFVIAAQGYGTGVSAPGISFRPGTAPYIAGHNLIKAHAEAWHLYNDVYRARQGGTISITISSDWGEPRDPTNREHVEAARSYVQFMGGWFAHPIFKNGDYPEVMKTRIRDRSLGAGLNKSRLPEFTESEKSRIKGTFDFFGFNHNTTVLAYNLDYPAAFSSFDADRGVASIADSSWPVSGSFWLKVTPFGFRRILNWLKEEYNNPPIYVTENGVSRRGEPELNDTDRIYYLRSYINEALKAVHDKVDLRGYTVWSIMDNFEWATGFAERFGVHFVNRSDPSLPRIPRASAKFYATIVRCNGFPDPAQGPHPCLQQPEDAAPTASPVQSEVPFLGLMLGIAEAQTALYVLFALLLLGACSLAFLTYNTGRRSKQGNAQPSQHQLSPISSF
Text: Correlation between the excretion of xylose in urine and the presence of xylose in blood after oral administration of 4-galactosyl-xylose with intestinal lactase activity. This has been shown in unweaned rats by comparing during the growth of these animals the amount of xylose in plasma analyzed after orally administering to them 4-galactosyl-xylose with specific lactase activity evaluated postmortem in the intestinal mucous membrane. For this purpose, a group comprised of 60 12-day old unweaned rats belonging to two litters fasted for 6 hours by being separated from the mother. After this period of time passed, basal blood was extracted from each animal by means of a heart puncture and each rat was immediately administered 8 mg of 4-galactosyl-xylose diluted in 0.3 ml of distilled water by using an intraesophageal probe. 3 hours after the disaccharide was administered another blood sample was extracted. The blood plasma or supernatant fraction was obtained by centrifuging this sample and the xylose therein was titrated by calorimetric analysis with fluoroglucinol and using the plasma of the basal blood as the target. Immediately after the blood was extracted, four of the animals were sacrificed and the lactase activity in the intestinal mucous membrane was directly evaluated in the same manner as the one described in Example 1. […]

[2] = target: T1, intestinal lactase; test: Excretion of xylose in urine after oral 4-galactosyl-xylose versus intestinal lactase activity in unweaned rats; assay type: in vivo
Text: Correlation between the excretion of xylose in urine and the presence of xylose in blood after oral administration of 4-galactosyl-xylose with intestinal lactase activity. This has been shown in unweaned rats comparing during the growth of these animals, the excretion of xylose in urine after orally administering to them 4-galactosyl-xylose, with lactase activity evaluated postmortem in the intestinal mucous membrane, which is known to physiologically reduce during growth. For this purpose, a group comprised of 20 12-day old unweaned rats belonging to two litters fasted for 6 hours by being separated from the mother. […] Immediately after the urine has been collected, four of the animals were sacrificed and the lactase activity in the intestinal mucous membrane was directly evaluated. […] The lactase activity in the homogenized product was measured spectrophotometrically. […] Therein one can see: 1) That the presence of xylose in urine coming from the hydrolysis of the 4-galactosyl-xylose administered is detected by the action of intestinal lactase; 2) That the rate of excretion of xylose in urine caused by oral administration of 4-galactosyl-xylose during the growth of the animals, runs parallel to the known physiological modification of intestinal lactase activity that reduces during growth. […]

## OCC1O[C@@H](O[C@@H]2COC(O)C(O)[C@H]2O)C(O)[C@@H](O)[C@H]1O (stereo partly shown)
[1]; unweaned rats aged 12 to 35 days, 8 mg oral, plasma 3 hours after administration
  linear correlation coefficient (r) between xylose in blood plasma and intestinal lactase activity: 0.98
[1]; unweaned rats, oral doses between 4 and 16 mg in 0.3 ml of water
  dose dependence of amount of xylose in plasma: increases with the increase of the amount of 4-galactosyl-xylose
[2]; unweaned rats aged 12 to 35 days, 4 mg oral, urine of 6 hours, lactase evaluated postmortem in intestinal mucous membrane
  linear correlation coefficient (r) between excretion of xylose in urine and intestinal lactase activity: 0.96
[2]; unweaned rats, oral doses from 2 to 32 mg in 0.3 ml of water
  dose dependence of excretion of xylose in urine: increases with the increase of the amount of 4-galactosyl-xylose administered
